Source: patent US20240100023A1, “Compositions and Methods For Treating Spinal Cord Injuries” (priority 2020, published 2024)

Columns and labels:
BDNF and NGF mRNAs = assay: BDNF and NGF mRNA prevalence in brain regions (anti-sense cRNA assays); format: in vivo; settings: for NGF message levels in the dentate gyrus granule cell layers: ampakine-stimulated versus vehicle-treated control; for BDNF and NGF mRNAs in layer II of the piriform cortex: systemic, CX516 30 mg/kg/day, CX691 3 mg/kg/day
Text: Ampakines enhanced NGF mRNA somewhat more than that of BDNF.

[1] = test system: fragile X syndrome (FXS) patients; settings: in vivo; cited from earlier work

SMILES | NGF message levels in the dentate gyrus granule cell layers (BDNF and NGF mRNAs) | BDNF and NGF mRNAs in layer II of the piriform cortex (BDNF and NGF mRNAs) | Memory, language use, attention, executive and overall functioning in FXS [1] | Concentration at which seizure activity is seen in hippocampal slices (hippocampal slices) [µM]
O=C(c1ccc2nonc2c1)N1CCCCC1 [CX691] | significantly enhanced | significantly up-regulated | – | –
O=C(c1ccc2nccnc2c1)N1CCCCC1 [CX516] | significantly enhanced | significantly up-regulated | did not exhibit improved memory | –
O=C1c2cc3c(cc2OC2CCCN12)OCCO3 (stereo not drawn) [CX614, reference compound] | – | – | – | 16
